Read-outs that look alike come from different tables or passages of the source.
Molecular target: T1, recombinant full-length USP7 (Homo sapiens, UniProt Q93009)
T1 construct: A 25 μl reaction volume containing recombinant full-length USP7 (62 pM)
Experiment: USP7-mediated ubiquitin-rhodamine cleavage assay
Format: biochemical
Settings: recombinant full-length USP7 62 pM, ubiquitin-rhodamine 100 nM, 1 hour reaction at room temperature
Procedure, shortened: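 IC50 values came from fluorescence measured after a 1 h room-temperature reaction of 62 pM enzyme with 100 nM ubiquitin-rhodamine, following 30 min compound preincubation; fits used four parameters.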

[1] = 30-minute incubation with compound, read-out: Potency: USP7 IC50
[2] = 30-minute pre-incubation, read-out: Potency (USP7 IC50)
[3] = 30-minute incubation, read-out: Potency (USP7 IC50)

T1 sequence (Q93009 whole entry): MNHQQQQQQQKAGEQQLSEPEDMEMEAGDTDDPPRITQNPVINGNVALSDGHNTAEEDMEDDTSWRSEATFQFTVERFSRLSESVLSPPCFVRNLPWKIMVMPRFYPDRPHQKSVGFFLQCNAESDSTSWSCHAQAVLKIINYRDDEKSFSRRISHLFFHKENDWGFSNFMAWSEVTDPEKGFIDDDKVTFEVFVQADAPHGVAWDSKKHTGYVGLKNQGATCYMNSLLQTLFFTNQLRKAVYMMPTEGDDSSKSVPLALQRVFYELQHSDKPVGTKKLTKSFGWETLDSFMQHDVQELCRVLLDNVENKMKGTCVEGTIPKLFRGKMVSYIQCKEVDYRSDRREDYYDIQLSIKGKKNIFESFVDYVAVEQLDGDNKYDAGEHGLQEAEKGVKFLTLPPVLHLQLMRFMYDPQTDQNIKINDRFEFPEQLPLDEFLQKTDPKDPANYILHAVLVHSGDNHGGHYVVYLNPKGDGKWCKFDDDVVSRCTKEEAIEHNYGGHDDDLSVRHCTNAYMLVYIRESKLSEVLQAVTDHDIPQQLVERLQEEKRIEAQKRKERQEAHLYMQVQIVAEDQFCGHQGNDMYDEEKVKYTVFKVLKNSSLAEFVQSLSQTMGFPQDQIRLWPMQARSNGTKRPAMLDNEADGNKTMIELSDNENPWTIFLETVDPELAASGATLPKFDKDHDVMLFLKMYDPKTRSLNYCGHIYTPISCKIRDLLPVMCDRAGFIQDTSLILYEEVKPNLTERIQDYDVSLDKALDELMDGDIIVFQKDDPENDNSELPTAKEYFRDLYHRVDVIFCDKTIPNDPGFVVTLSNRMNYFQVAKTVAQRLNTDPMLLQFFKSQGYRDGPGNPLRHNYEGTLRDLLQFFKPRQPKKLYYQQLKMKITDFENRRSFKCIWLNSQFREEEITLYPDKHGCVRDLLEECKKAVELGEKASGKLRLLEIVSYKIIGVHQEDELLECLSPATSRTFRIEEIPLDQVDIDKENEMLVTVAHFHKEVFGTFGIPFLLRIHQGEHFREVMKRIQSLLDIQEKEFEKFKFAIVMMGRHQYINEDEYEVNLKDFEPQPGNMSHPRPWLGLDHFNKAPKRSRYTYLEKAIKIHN

| IC50 [1] [nM] | IC50 [2] [nM] | Compound | other results |
| --- | --- | --- | --- |
| < 1000 |  | Cc1cc(Cl)cc(-c2ccnc3cc(CN4C(=O)C5CC5C4=O)sc23)c1O[C@@H]1C[C@H]2CN[C@@H]1C2 (stereo partly drawn) [Example 315, 3-[[7-[2-[[(1S,4R,5R)-3-azabicyclo[2.2.1]heptan-5-yl]oxy]-5-chloro-3-methyl-phenyl]thieno[3,2-b]pyridin-2-yl]methyl]-3-azabicyclo[3.1.0]hexane-2,4-dione] |  |
| < 1000 |  | Cc1cc(Cl)cc(-c2ncnc3cc(CN4C(=O)CCCC4=O)sc23)c1O[C@H]1CCCNC1 [Example 260, (S)-1-((4-(5-Chloro-3-methyl-2-(piperidin-3-yloxy)phenyl)thieno[3,2-d]pyrimidin-6-yl)methyl)piperidine-2,6-dione] |  |
| > 30000 |  | Cc1cc(Cl)cc(-c2ccnc3cc(CO)sc23)c1O[C@@H]1CCCC[C@@H]1N [Example 196, (7-(2-(((1R,2S)-2-Aminocyclohexyl)oxy)-5-chloro-3-methylphenyl)thieno[3,2-b]pyridin-2-yl)methanol] |  |
| 1000 to 10000 |  | Cc1cc(Cl)cc(-c2ccnc3cc([C@H](C)N4C(=O)CCC4=O)sc23)c1OC1CCNCC1 [Example 1, (S)-1-(1-(7-(5-Chloro-3-methyl-2-(piperidin-4-yloxy)phenyl)thieno[3,2-b]pyridin-2-yl)ethyl)pyrrolidine-2,5-dione] |  |
|  | < 1000 | Cc1cc(Cl)cc(-c2ccnc3cc(Cn4c(=O)ccn(C(C)C)c4=O)sc23)c1O[C@H]1CCNC[C@@H]1F [Example 563, 3-[[7-[5-chloro-2-[[(3S,4S)-3-fluoro-4-piperidyl]oxy]-3-methyl-phenyl]thieno[3,2-b]pyridin-2-yl]methyl]-1-isopropyl-pyrimidine-2,4-dione] |  |
| < 1000 |  | CCOC(=O)NN(Cc1cc2nccc(-c3cc(Cl)cc(C)c3O[C@@H]3CCNC[C@@H]3C)c2s1)C(=O)OCC [Example 402, ethyl N-[[7-[5-chloro-3-methyl-2-[[(3S,4R)-3-methyl-4-piperidyl]oxy]phenyl]thieno[3,2-b]pyridin-2-yl]methyl]-N-(ethoxycarbonylamino)carbamate] |  |
|  | < 1000 | Cc1cc(Cl)cc(-c2ncnc3cc(Cn4c(=O)ccn(CC(F)(F)F)c4=O)sc23)c1O[C@H]1CCCNC1 [Example 517] |  |
|  | < 1000 | Cc1cc(Cl)cc(-c2ccnc3cc(Cn4c(=O)ccn(CC(F)(F)F)c4=O)sc23)c1OC1C=CCNC1 (stereo not drawn) [Example 631, 3-[[7-[5-chloro-3-methyl-2-(1,2,3,6-tetrahydropyridin-3-yloxy)phenyl]thieno[3,2-b]pyridin-2-yl]methyl]-1-(2,2,2-trifluoroethyl)pyrimidine-2,4-dione] |  |
|  | < 1000 | Cc1cc(Cl)cc(-c2ccnc3cc(Cn4c(=O)ccn(C)c4=O)sc23)c1O[C@H]1CCN(C)C[C@@H]1F [Example 472, 3-[[7-[5-chloro-2-[[(3S,4S)-3-fluoro-1-methyl-4-piperidyl]oxy]-3-methyl-phenyl]thieno[3,2-b]pyridin-2-yl]methyl]-1-methyl-pyrimidine-2,4-dione; 2,2,2-trifluoroacetic acid] |  |
|  | < 1000 | Cc1cc(Cl)cc(-c2ccnc3cc(Cn4c(=O)c(C(F)(F)F)cn(C)c4=O)sc23)c1O[C@H]1CCCNC1 [Example 581, 3-[[7-[5-chloro-3-methyl-2-[[(3S)-3-piperidyl]oxy]phenyl]thieno[3,2-b]pyridin-2-yl]methyl]-1-methyl-5-(trifluoromethyl)pyrimidine-2,4-dione; 2,2,2-trifluoroacetic acid] |  |
| < 1000 |  | Cc1cc(Cl)cc(-c2ccnc3cc(CN4C(=O)CCC4=O)sc23)c1O[C@H]1C[C@@H]2CN[C@H]1C2 [Example 221, 1-((7-(2-(((1S,4R,6S)-2-azabicyclo[2.2.1]heptan-6-yl)oxy)-5-chloro-3-methylphenyl)thieno[3,2-b]pyridin-2-yl)methyl)pyrrolidine-2,5-dione] |  |
| < 1000 |  | CC(=O)NCc1cc2nccc(-c3cc(Cl)cc(C)c3O[C@@H]3CNC[C@@H]3F)c2s1 [Example 91, N-((7-(5-Chloro-2-(((3R,4S)-4-fluoropyrrolidin-3-yl)oxy)-3-methylphenyl)thieno[3,2-b]pyridin-2-yl)methyl)acetamide] |  |
| < 1000 |  | Cc1cc(Cl)cc(-c2ccnc3cc(Cn4c(=O)ccn(CC(F)(F)F)c4=O)sc23)c1OC1(C(F)(F)F)CCCNC1 (stereo not drawn) [Example 274, 3-((7-(5-Chloro-3-methyl-2-((3-(trifluoromethy)piperidin-3-yl)oxy)phenyl)thieno[3,2-b]pyridin-2-yl)methyl)-1-(2,2,2-trifluoroethyl)pyrimidine-2,4(1H,3H)-dione] |  |
|  |  | Cc1cc(Cl)cc(-c2ccnc3cc(Cn4c(=O)ccn(CC(F)(F)F)c4=O)sc23)c1OC(C)C [Example 702, 3-[[7-(5-chloro-2-isopropoxy-3-methyl-phenyl)thieno[3,2-b]pyridin-2-yl]methyl]-1-(2,2,2-trifluoroethyl)pyrimidine-2,4-dione] | IC50 [3]: 1000 to 10000 nM |
| < 1000 |  | Cc1cc(Cl)cc(-c2ccnc3cc(CN4C(=O)C5C(C4=O)C5(C)C)sc23)c1O[C@H]1CCNC[C@H]1F (stereo partly drawn) [Example 392, 3-[[7-[5-chloro-2-[[(3R,4S)-3-fluoro-4-piperidyl]oxy]-3-methyl-phenyl]thieno[3,2-b]pyridin-2-yl]methyl]-6,6-dimethyl-3-azabicyclo[3.1.0]hexane-2,4-dione; 2,2,2-trifluoroacetic acid] |  |
| < 1000 |  | Cc1cc(Cl)cc(-c2ccnc3cc(CN4C(=O)C5C(C4=O)C5(C)C)sc23)c1OC1CNCC1(C)C (stereo not drawn) [Example 369, 3-[[7-[5-chloro-2-(4,4-dimethylpyrrolidin-3-yl)oxy-3-methyl-phenyl]thieno[3.2-b]pyridin-2-yl]methyl]-6,6-dimethyl-3-azabicyclo[3.1.0]hexane-2,4-dione] |  |
|  | < 1000 | Cc1cc(Cl)cc(-c2ccnc3cc(Cn4c(=O)ccn(CC(F)(F)F)c4=O)sc23)c1O[C@H]1CN[C@H](C(F)F)C1 [Example 574, 3-[[7-[5-chloro-2-[(3R,5S)-5-(difluoromethyl)pyrrolidin-3-yl]oxy-3-methyl-phenyl]thieno[3,2-b]pyridin-2-yl]methyl]-1-(2,2,2-trifluoroethyl)pyrimidine-2,4-dione] |  |
| 10000 to 30000 |  | Cc1cc(Cl)cc(-c2ccnc3cc(CO)sc23)c1O[C@@H]1CCC[C@@H]1N [Example 74, (7-(2-(((1R,2S)-2-Aminocyclopentyl)oxy)-5-chloro-3-methylphenyl)thieno[3,2-b]pyridin-2-yl)methanol] |  |
| 1000 to 10000 |  | Cc1cc(Cl)cc(-c2ccnc3cc(Cn4cnc5ccccc5c4=O)sc23)c1O[C@H]1CCCNC1 [Example 385, 3-[[7-[5-chloro-3-methyl-2-[[(3S)-3-piperidyl]oxy]phenyl]thieno[3,2-b]pyridin-2-yl]methyl]quinazolin-4-one; 2,2,2-trifluoroacetic acid] |  |
| 10000 to 30000 |  | CCC(O)c1cc2nccc(-c3cc(Cl)cc(C)c3OCC3CN(C)C3)c2s1 (stereo not drawn) [Example 3, 1-(7-(5-Chloro-3-methyl-2-((1-methylazetidin-3-yl)methoxy)phenyl)thieno[3,2-b]pyridin-2-yl)propan-1-ol] |  |
| < 1000 |  | Cc1cc(Cl)cc(-c2ccnc3cc(CN4C(=O)CCC4=O)sc23)c1O[C@@H]1CNC[C@@H]1CF [Example 108, 1-((7-(5-Chloro-2-(((3S,4S)-4-(fluoromethyl)pyrrolidin-3-yl)oxy)-3-methylphenyl)thieno[3,2-b]pyridin-2-yl)methyl)pyrrolidine-2,5-dione] |  |
|  | < 1000 | Cc1cc(Cl)cc(-c2ccnc3cc(Cn4c(=O)ccn(CC(F)(F)F)c4=O)sc23)c1O[C@H]1CCCNC1 [Example 484, 3-[[7-[5-chloro-3-methyl-2-[[(3S)-3-piperidyl]oxy]phenyl]thieno[3,2-b]pyridin-2-yl]methyl]-1-(2,2,2-trifluoroethyl)pyrimidine-2,4-dione] |  |
|  |  | Cc1cc(Cl)cc(-c2ccnc3cc(Cn4c(=O)ccn(CC(F)(F)F)c4=O)sc23)c1OC1CC(N2CCC(F)C2)C1 (stereo not drawn) [Example 685, 3-[[7-[5-chloro-2-[3-(3-fluoropyrrolidin-1-yl)cyclobutoxy]-3-methyl-phenyl]thieno[3,2-b]pyridin-2-yl]methyl]-1-(2,2,2-trifluoroethyl)pyrimidine-2,4-dione; 2,2,2-trifluoroacetic acid] | IC50 [3]: < 1000 nM |
| < 1000 |  | N#Cc1cc(Cl)c(O[C@@H]2CNC[C@@H]2F)c(-c2ccnc3cc(CN4C(=O)CCC4=O)sc23)c1 [Example 122, 3-Chloro-5-(2-((2,5-dioxopyrrolidin-1-yl)methyl)thieno[3,2-b]pyridin-7-yl)-4-(((3R,4S)-4-fluoropyrrolidin-3-yl)oxy)benzonitrile] |  |
|  |  | CCN(CC)C(=O)CN1CC[C@@H](Oc2c(C)cc(Cl)cc2-c2ccnc3cc(Cn4c(=O)ccn(CC(F)(F)F)c4=O)sc23)[C@@H](C)C1 [Example 692, 2-[(3S,4R)-4-[4-chloro-2-[2-[[2,6-dioxo-3-(2,2,2-trifluoroethyl)pyrimidin-1-yl]methyl]thieno[3,2-b]pyridin-7-yl]-6-methyl-phenoxy]-3-methyl-1-piperidyl]-N,N-diethyl-acetamide] | IC50 [3]: < 1000 nM |
|  | < 1000 | CC(=O)N1CC[C@@H](Oc2c(C)cc(Cl)cc2-c2ccnc3cc(Cn4c(=O)ccn(CC(F)(F)F)c4=O)sc23)[C@@H](C)C1 [Example 607, 3-[[7-[2-[[(3S,4R)-1-acetyl-3-methyl-4-piperidyl]oxy]-5-chloro-3-methyl-phenyl]thineo[3,2-b]pyridin-2-yl]methyl]-1-(2,2,2-trifluoroethyl)pyrimidine-2,4-dione] |  |

| Compound | IC50 [1] [nM] | IC50 [2] [nM] | other results |
| --- | --- | --- | --- |
| Cc1cc(Cl)cc(-c2ccnc3cc(Cn4c(=O)ccn(CC(F)(F)F)c4=O)sc23)c1OC1CC(N2CCC(F)(F)CC2)C1 (stereo not drawn) [Example 668, 3-[[7-[5-chloro-2-[3-(4,4-difluoro-1-piperidyl)cyclobutoxy]-3-methyl-phenyl]thieno[3,2-b]pyridin-2-yl]methyl]-1-(2,2,2-trifluoroethyl)pyrimidine-2,4-dione; 2,2,2-trifluoroacetic acid] |  | < 1000 |  |

Reference: US10722514B2 (FLX Bio, Inc., priority 2017, dated 2020)
